Laboratory results reported in ChEMBL document CHEMBL4177615 (Bioorg Med Chem, 2017).

What was measured:
[1] = test system: Plasmodium falciparum; assay: Antiplasmodial activity against Plasmodium falciparum K1 at 0.002 to 100 ug/ml by serial drug dilution assay; type: functional, organism-based
[2] = test system: Plasmodium falciparum; assay: Antimalarial activity against Plasmodium falciparum 3D7 infected in ARh+ human erythrocytes at 0.1 uM after 42 to 48 hrs by Picogreen staining-based 96 well microplate assay; type: functional; conditions: read-out: GI
[3] = test system: Plasmodium falciparum; assay: Antimalarial activity against Plasmodium falciparum 3D7 infected in ARh+ human erythrocytes at 1 uM after 42 to 48 hrs by Picogreen staining-based 96 well microplate assay; type: functional; conditions: read-out: GI
[4] = test system: Plasmodium falciparum; assay: Antimalarial activity against Plasmodium falciparum 3D7 infected in ARh+ human erythrocytes at 0.01 uM after 42 to 48 hrs by Picogreen staining-based 96 well microplate assay; type: functional; conditions: read-out: GI
[5] = test system: Plasmodium falciparum; assay: Antimalarial activity against Plasmodium falciparum 3D7 infected in ARh+ human erythrocytes at 10 uM after 42 to 48 hrs by Picogreen staining-based 96 well microplate assay; type: functional; conditions: read-out: GI
[6] = test system: hERG (KCNH2); assay: Selectivity index, ratio of IC50 for inhibition of human ERG expressed in Xenopus laevis oocytes to IC50 for Plasmodium falciparum 3D7; type: toxicity, cell-based; conditions: read-out: Ratio IC50
[7] = test system: Plasmodium falciparum; assay: Antimalarial activity against Plasmodium falciparum 3D7 infected in ARh+ human erythrocytes after 42 to 48 hrs by Picogreen staining-based 96 well microplate assay; type: functional, organism-based
[8] = molecular target: Voltage-gated inwardly rectifying potassium channel KCNH2 (Homo sapiens, UniProt Q12809); assay: Inhibition of human ERG expressed in Xenopus laevis oocytes by two-electrode voltage clamp assay; type: cell-based
Sequence of Voltage-gated inwardly rectifying potassium channel KCNH2 (Q12809 whole entry): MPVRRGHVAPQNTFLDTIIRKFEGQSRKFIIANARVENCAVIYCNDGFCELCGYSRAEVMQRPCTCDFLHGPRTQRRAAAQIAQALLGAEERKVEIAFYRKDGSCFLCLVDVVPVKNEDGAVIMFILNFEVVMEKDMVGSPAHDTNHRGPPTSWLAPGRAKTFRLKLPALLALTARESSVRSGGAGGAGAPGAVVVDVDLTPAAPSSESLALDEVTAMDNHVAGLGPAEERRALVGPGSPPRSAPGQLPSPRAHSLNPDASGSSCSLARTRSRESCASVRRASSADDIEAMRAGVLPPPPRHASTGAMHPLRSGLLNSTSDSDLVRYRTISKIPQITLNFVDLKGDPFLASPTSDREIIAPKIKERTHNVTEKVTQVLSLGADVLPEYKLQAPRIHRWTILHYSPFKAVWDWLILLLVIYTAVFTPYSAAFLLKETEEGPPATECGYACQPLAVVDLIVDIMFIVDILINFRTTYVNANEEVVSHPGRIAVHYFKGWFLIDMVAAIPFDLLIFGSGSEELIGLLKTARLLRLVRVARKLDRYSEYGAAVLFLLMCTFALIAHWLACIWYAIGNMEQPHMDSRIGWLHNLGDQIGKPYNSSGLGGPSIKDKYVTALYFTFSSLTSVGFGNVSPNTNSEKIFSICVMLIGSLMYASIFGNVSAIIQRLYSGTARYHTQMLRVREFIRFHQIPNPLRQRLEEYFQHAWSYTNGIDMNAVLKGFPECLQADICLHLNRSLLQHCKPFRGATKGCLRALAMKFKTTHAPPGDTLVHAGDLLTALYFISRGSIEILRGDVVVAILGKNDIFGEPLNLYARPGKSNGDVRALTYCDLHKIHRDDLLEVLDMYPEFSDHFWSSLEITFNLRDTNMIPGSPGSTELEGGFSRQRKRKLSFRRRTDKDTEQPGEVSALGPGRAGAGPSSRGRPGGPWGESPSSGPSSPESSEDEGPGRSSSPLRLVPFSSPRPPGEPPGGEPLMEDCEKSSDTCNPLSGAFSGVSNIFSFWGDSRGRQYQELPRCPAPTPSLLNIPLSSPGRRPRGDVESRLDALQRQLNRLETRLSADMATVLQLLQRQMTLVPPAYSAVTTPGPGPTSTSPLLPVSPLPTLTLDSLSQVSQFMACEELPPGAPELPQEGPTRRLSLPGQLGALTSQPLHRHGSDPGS

SMILES | IC50 [1] | inhibition of growth at 0.1 µM [2] | inhibition of growth at 1 µM [3] | inhibition of growth at 0.01 µM [4] | inhibition of growth at 10 µM [5] | selectivity ratio [6] | IC50 [7] | IC50 [8]
CN(C)CCCN1c2ccccc2Sc2ccccc21 [PROMAZINE] | 500 nM |  |  |  |  |  |  | 
OCCN1CCN(CCCN2c3ccccc3Sc3ccc(C(F)(F)F)cc32)CC1 [FLUPHENAZINE] | 500 nM |  |  |  |  |  |  | 
CN(C)CCC=C1c2ccccc2CCc2ccccc21 [AMITRIPTYLINE] | 500 nM |  |  |  |  |  |  | 
CCCCCCCCCCn1c(NC2CCN(CCc3ccc(OC)cc3)CC2)nc2ccccc21 |  | 77% | 100% | 0% | 100% | 18.4 | 50 to 113 nM | 2070 nM
CCCCCCCCn1c(NC2CCN(CCc3ccc(OC)cc3)CC2)nc2ccccc21 |  | 93% | 96% | 4% | 100% | 110 | 29 to 29.6 nM | 3270 nM
CNCCC=C1c2ccccc2CCc2ccccc21 [NORTRIPTYLINE] | 500 nM |  |  |  |  |  |  | 
COc1ccc(CCN2CCC(Nc3nc4ccccc4[nH]3)CC2)cc1 |  | 52% | 100% | 6% | 100% | 2.1 | 78 to 79.7 nM | 164 nM
